Experiments:
[1] = tested on: HT-29 human colon adenocarcinoma cells; test: MTT assay, antiproliferative effect; type: cell-based; conditions: HT-29, 72 h, 3 days, read-out: Viability of HT-29 cells as determined by MTT assay
Method: Evaluation of Antiproliferative Effect (MTT Assay)
The antiproliferative activity of test compounds was determined by the 3-(4,5-dimethylthiazol-2-yl)-2,5-diphenyltetrazolium bromide (MTT) assay as described previously (Mosmann, T. et al. (1983) J. Immunol. Methods 65: 55-63). Cells in the exponential growth phase were transferred to 96-well flat-bottomed plates. 10,000 viable cells contained in 200 μl cell suspension were plated into each well and incubated over night. Cells were then exposed to various concentrations of test compounds (100 μl/well) for 3 days at 37° C. with 5% CO2. Subsequently, 10 μl/well MTT stock solution (5 mg/ml; Biomol, Germany) were added and the cells were incubated at 37° C. with 5% CO2 for 4 hours. 100 μl solubilization solution (10% SDS in 0.01 M HCl) were added and the cells were incubated at 37° C. with 5% CO2 over night. Plates were read on an ELISA-Reader ELX 800 (BIO-TEK Software KC 4) at 562 nm absorbance. Each experiment was done in triplicate.
(§1) Working solutions of 26 mM test compound in DMSO were prepared and stored in aliquots at −20° C. A 29.6 mM stock solution of irinotecan in water was prepared and stored in aliquots at 4° C. The drugs were diluted in culture medium immediately before use to obtain the desired concentrations.
(§2) The human colon cancer cell line HT-29 was obtained from the DSMZ, Germany. […] cells were cultured in RPMI 1640 supplemented with 10% FCS at 37° C. and 5% CO2.
The antitumor activity of test compounds was examined against HT-29 human colon adenocarcinoma cells using MTT assay (method described above).

FLT-3 = FLT-3 (Homo sapiens (Human), UniProt P36888); test: FLT-3 kinase assay (Millipore IC50Profiler); type: biochemical
Method: (§3) GSK-3β, VEGFR-2, FLT-3, Kinase Assays
(§4) The effect of test compounds on the activity of the protein kinases GSK-3β, VEGFR-2 and FLT-3 was evaluated based on half maximal inhibitory concentration (IC50) values determined by Millipore UK Ltd; Gemini Crescent; Dundee Technology Park; Dundee DD2 1SW; UK (IC50Profiler). Detailed protocols can be found at: www.millipore.com/drugdiscovery/dd3/assayprotocols.
(§5) The inhibitory effect of test compounds on protein kinases VEGFR-2, FLT-3 and GSK-3β was investigated using respective kinase inhibition assays (method described above) and the values of half maximal inhibitory concentration (IC50) were determined from the assay results. […] Thus, compounds with selective kinase profiles were identified, which may allow application specific for a certain tumor or condition while showing less side-effects caused by activity against other kinases.

HT-29 cells = test: Nicoletti apoptosis assay by cell cycle analysis (sub-G1 fraction); type: cell-based, human; conditions: 7 days
Method: Nicoletti Apoptosis Assay by Cell Cycle Analysis
Cancer cells were transferred to 12-well flat-bottomed plates. 1.5×10^5 viable cells contained in 1 ml cell suspension were plated into each well and incubated over night before exposure with various concentrations of drugs. Subsequently, cells were incubated in 1 ml medium containing various concentrations of test compounds at 37° C. with 5% CO2. After incubation the cells were washed with PBS, trypsinized, pelleted and mixed with PI buffer (containing 0.1% sodium citrate, 0.1% triton X-100, […] propidium iodide (PI)) and incubated for 1 hour at 4° C. Cell cycle sub-G1 fraction analysis was performed as described previously (Nicoletti, I. et al. (1991) J. Immunol. Methods 139: 271-279) using a flow cytometer (BD FACS Calibur™, BD Biosciences, Heidelberg, Germany). Each experiment was done in triplicate.
as §1, §2
Compounds of the invention (test compounds) and the topoisomerase I inhibitor irinotecan were analyzed for their individual and combined effect in apoptosis assay (method described above). Induction of apoptosis was determined by cell cycle analysis (% sub-G1 fraction) after incubating HT-29 cells with test compounds, irinotecan or combinations thereof, respectively, for 7 days.

VEGFR-2 = VEGFR-2 (Homo sapiens (Human), UniProt P35968); test: VEGFR-2 kinase assay (Millipore IC50Profiler); type: biochemical
Source text: as §3
Detailed protocols can be found at: www.millipore.com/drugdiscovery/dd3/assayprotocols.

GSK-3β = GSK-3β (Homo sapiens (Human), UniProt P49841); test: GSK-3β kinase assay (Millipore IC50Profiler); type: biochemical
Method: as §3, §4, §5

[2] = In vitro hepatic microsome stability; type: in vitro ADME; conditions: rat liver microsomes in Tris buffer
Method: Metabolic conversion was evaluated by incubating compounds of the invention (test compounds) with rat liver microsomes (BD Biosciences) in Tris buffer.

[3] = 8 μM test compound plus 1.18 μM irinotecan

Sequence of GSK-3β (P49841 whole entry): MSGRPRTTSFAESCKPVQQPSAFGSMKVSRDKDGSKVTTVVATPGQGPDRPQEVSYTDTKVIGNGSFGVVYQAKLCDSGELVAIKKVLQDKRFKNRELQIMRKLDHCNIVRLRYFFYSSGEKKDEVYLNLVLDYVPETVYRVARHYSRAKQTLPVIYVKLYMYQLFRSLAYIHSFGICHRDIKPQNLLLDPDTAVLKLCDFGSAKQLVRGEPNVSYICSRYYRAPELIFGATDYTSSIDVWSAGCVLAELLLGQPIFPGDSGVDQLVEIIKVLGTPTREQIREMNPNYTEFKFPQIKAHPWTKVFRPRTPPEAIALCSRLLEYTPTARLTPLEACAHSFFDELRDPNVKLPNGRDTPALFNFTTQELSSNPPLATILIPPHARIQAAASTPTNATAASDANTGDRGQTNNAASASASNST
Sequence of FLT-3 (P36888 27-993): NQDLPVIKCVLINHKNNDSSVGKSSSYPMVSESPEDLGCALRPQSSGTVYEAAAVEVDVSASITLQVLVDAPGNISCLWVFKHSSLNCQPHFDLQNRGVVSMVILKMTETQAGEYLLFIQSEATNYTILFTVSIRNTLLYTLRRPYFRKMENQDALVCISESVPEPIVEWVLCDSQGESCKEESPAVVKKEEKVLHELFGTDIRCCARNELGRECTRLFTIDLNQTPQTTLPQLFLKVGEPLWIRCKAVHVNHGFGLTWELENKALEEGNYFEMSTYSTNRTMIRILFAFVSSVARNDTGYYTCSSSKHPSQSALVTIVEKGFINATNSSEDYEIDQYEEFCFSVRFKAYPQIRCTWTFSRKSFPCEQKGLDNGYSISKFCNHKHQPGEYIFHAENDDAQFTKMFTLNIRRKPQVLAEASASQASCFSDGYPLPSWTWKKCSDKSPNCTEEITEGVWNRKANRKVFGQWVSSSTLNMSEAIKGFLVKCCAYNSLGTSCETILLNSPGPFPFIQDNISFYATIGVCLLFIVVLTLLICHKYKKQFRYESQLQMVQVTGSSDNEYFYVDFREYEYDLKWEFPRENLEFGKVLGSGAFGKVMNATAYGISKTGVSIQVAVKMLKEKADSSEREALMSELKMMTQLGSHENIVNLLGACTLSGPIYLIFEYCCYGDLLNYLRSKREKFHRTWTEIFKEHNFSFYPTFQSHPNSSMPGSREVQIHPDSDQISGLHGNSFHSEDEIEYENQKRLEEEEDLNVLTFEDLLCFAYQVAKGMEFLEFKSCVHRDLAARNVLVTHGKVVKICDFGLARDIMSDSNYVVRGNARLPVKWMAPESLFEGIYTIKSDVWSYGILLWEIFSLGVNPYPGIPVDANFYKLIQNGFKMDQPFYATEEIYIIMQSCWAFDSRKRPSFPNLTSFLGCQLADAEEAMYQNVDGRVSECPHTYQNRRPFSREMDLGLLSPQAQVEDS
Sequence of VEGFR-2 (P35968 20-1356): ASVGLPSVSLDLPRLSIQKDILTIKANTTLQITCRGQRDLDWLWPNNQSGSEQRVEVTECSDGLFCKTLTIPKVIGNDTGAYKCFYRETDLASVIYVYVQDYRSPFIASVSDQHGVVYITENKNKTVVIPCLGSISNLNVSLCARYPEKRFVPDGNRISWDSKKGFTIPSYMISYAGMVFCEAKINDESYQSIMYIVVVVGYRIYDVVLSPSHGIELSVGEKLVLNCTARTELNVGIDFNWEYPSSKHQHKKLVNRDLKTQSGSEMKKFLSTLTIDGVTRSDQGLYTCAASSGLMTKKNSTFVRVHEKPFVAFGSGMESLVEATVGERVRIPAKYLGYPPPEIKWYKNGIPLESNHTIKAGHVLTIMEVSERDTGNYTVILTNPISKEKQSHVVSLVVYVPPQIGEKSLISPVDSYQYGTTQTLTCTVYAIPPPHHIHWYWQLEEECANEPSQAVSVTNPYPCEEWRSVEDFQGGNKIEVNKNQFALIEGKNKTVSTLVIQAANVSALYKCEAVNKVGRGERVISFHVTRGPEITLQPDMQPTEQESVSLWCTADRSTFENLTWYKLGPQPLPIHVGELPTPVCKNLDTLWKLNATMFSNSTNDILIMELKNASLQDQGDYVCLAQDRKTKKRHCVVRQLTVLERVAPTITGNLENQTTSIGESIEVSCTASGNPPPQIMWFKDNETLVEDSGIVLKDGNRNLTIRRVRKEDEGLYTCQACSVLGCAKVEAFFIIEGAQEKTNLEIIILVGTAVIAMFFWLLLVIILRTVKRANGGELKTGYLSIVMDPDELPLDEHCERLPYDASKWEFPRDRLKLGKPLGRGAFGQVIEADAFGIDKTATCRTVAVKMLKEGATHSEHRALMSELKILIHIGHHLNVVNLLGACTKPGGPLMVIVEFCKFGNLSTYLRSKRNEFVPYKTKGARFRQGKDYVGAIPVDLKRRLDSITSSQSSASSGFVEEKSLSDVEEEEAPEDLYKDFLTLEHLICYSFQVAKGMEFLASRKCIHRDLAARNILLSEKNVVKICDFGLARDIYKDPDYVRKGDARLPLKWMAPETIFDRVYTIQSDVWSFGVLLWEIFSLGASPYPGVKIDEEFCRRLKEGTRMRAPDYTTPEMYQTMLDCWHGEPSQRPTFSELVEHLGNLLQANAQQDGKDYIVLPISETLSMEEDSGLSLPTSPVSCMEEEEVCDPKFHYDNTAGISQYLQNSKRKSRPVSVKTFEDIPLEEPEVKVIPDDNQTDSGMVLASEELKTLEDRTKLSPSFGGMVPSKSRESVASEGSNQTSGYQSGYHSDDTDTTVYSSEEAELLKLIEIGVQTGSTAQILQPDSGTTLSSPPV

| IC50 (FLT-3) | IC50 (VEGFR-2) | IC50 (GSK-3β) | Metabolic conversion (degradation, metabolite formed) [2] | SMILES | viability at 1 µM [1] | viability at 10 µM [1] | viability at 20 µM [1] | viability at 50 µM [1] | Sub-G1 Fraction (HT-29 cells; 8 μM test compound only) | Sub-G1 Fraction (HT-29 cells; [3]) | Sub-G1 Fraction (HT-29 cells; 1.18 μM irinotecan only) |
| --- | --- | --- | --- | --- | --- | --- | --- | --- | --- | --- | --- |
| ≥ 1000 nM | ≥ 1000 nM | 208 nM | – | COc1cc(C2=C(c3cn(CCCNC(=O)C(N)CC(C)C)c4ccccc34)C(=O)NC2=O)cc(OC)c1OC (stereo not shown) [Compound A, 2-Amino-N-(3-(3-(2,5-dioxo-4-(3,4,5-trimethoxyphenyl)-2,5-dihydro-1H-pyrrol-3-yl)-1H-indol-1-yl)propyl)-4-methylpentanamide] | 94.9 ± 4.6% | 68.7 ± 0.9% | 59.2 ± 5.4% | 26 ± 8.9% | 7.4 ± 0.5% | 38.9 ± 2.8% | – |
| 480 nM | ≥ 1000 nM | 134 nM | time dependent degradation | COc1cc(C2=C(c3cn(CCCOC(=O)C(N)CC(C)C)c4ccccc34)C(=O)NC2=O)cc(OC)c1OC (stereo not shown) [Compound C, 3-(3-(2,5-Dioxo-4-(3,4,5-trimethoxyphenyl)-2,5-dihydro-1H-pyrrol-3-yl)-1H-indol-1-yl)propyl 2-amino-4-methylpentanoate] | 96.7 ± 3.3% | 49.3 ± 1.1% | 51 ± 2.3% | – | 6.6 ± 0.4% | 39.2 ± 0.7% | – |
| 239 nM | 251 nM | 12 nM | yield metabolite D1 | COc1cc(C2=C(c3cn(CCOC(=O)C(N)CC(C)C)c4ccccc34)C(=O)NC2=O)cc(OC)c1OC (stereo not shown) [Compound D, 2-(3-(2,5-Dioxo-4-(3,4,5-trimethoxyphenyl)-2,5-dihydro-1H-pyrrol-3-yl)-1H-indol-1-yl)ethyl 2-amino-4-methylpentanoate] | 104 ± 6.4% | 99.4 ± 8.3% | 94.5 ± 8.3% | 65.3 ± 3.3% | 6.2 ± 0.8% | 44.5 ± 1.5% | – |
| 556 nM | – | 2250 nM | gave its metabolite Z1 | COc1cc(C2=C(c3cn(CCCO)c4ccccc34)C(=O)NC2=O)cc(OC)c1OC [Compound C1, 3-(1-(3-hydroxypropyl)indol-3-yl)-4-(3,4,5-trimethoxyphenyl)-1H-pyrrole-2,5-dione] | – | – | – | – | – | – | – |

Continued, compound first:

| SMILES | IC50 (FLT-3) | IC50 (VEGFR-2) | IC50 (GSK-3β) | Metabolic conversion (degradation, metabolite formed) [2] | viability at 1 µM [1] | viability at 10 µM [1] | viability at 20 µM [1] | viability at 50 µM [1] | Sub-G1 Fraction (HT-29 cells; 8 μM test compound only) | Sub-G1 Fraction (HT-29 cells; [3]) | Sub-G1 Fraction (HT-29 cells; 1.18 μM irinotecan only) |
| --- | --- | --- | --- | --- | --- | --- | --- | --- | --- | --- | --- |
| COc1cc(C2=C(c3cn(CCCO)c4ccccc34)C(=O)NC2=O)cc(OC)c1OC [Compound D1, 3-(1-(3-hydroxypropyl)indol-3-yl)-4-(3,4,5-trimethoxyphenyl)-1H-pyrrole-2,5-dione] | – | – | – | upon further degradation gave compound Z1 | – | – | – | – | – | – | – |
| CCc1c2c(nc3ccc(OC(=O)N4CCC(N5CCCCC5)CC4)cc13)-c1cc3c(c(=O)n1C2)COC(=O)[C@]3(O)CC [irinotecan, reference compound] | – | – | – | – | – | – | – | – | – | – | 26.1 ± 2.1% |
| COc1cc(C2=C(c3c[nH]c4ccccc34)C(=O)NC2=O)cc(OC)c1OC [Compound Z1, 3-(1-H-indol-3-yl)-4-(3,4,5-trimethoxyphenyl)-1H-pyrrole-2,5-dione] | 270 nM | 90 nM | > 1000 nM | metabolized to form metabolite Z2 | – | – | – | – | – | – | – |

Reference: patent US8957103B2, “Conjugated 3-(indolyl)- and 3-(azaindolyl)-4-arylmaleimide compounds and their use in tumor treatment” (Johannes Gutenberg—Universitat Mainz, priority 2010, dated 2015)
